Columns and labels:
[1] = literature (Asai 2005; Liu and Qian 2002); cited from earlier work
[2] = tested on: scopolamine induced memory deficit; assay: Scopolamine induced dementia, passive avoidance test; assay type: in vivo; details: Swiss albino mice, 2 mg/kg
Source text: Animals were randomized to their body weight (n=6-8). All animals were then habituated to experimental apparatus (Passive avoidance instrument of make—UGO Basile Biological Research Apparatus Italy) prior to the experiment. For habituation, animals were placed gently in the light compartment of the apparatus. After 5 seconds guillotine door was opened and animal allowed entering the dark compartment without giving the shock. Animals that took more than 100 seconds to enter the dark room were eliminated from the experiments. For acquisition trial the animals were placed in light compartment and allowed to enter the dark compartment through guillotine door. As soon as the animal entered to the dark compartment, door was closed and animal was delivered a foot shock (0.5 mA current) immediately for the duration of 5 seconds. Animals were then removed from apparatus after 20 seconds and placed temporarily in its home cage. Repeated the same procedure (keeping the gap between acquisition trials to 5 minutes) till the animal remained in the light compartment for consecutive 120 seconds. Retention was recorded at day 2 without shock in dark chamber. Increase in transfer latency time from light to dark chamber indicated learning in animals. Rivastigmine was used as positive control in this study. […] Percentage (%) change in transfer latency as compared with control on retention trial was calculated. […]

## CC(/C=C/C=C(\C)C(=O)O)=C\C=C\C=C(C)\C=C\C=C(/C)C(=O)O [crocetin]
[1]
  plasma half-life: ~2 h

## CCN(C)C(=O)Oc1cccc([C@H](C)N(C)C)c1 [rivastigmine]
[2]
  effect on latency time (positive control): significant reduction in latency time
